Literature values as cited in patent US20050197398A1, “Therapeutic agent for hepatic disease” (AJINOMOTO CO., INC, priority 2002, published 2005).

Legend:
[1] = test system: rat primary culture hepatocytes; conditions: D-galactosamine loading
[2] = test system: D-galactosamine-induced liver failure rat model

C[C@H](N)C(=O)O [alanine]
lactic dehydrogenase extracellular overflow [1]: suppress an increase of lactic dehydrogenase extracellular overflow
liver failure [2]: improves liver failure
level of ATP ([2]; ATP becomes lower in liver failure): raises the level of ATP
